PubChem BioAssay (NCI)
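96-well plates; 48 h exposure; 5 concentrations. Endpoints by linear interpolation between flanking doses. Not reached: highest tested concentration assigned. Here, GI50 denotes the concentration required for 50% inhibition of growth. Definition used: TGI = concentration required for complete inhibition of growth.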

System: UACC-257 melanoma
Assay: DTP human tumour cell line panel, 48 h

SMILES | GI50 | TGI
COC(=O)NC/C=C\c1nc(CC/C=C\C(=O)OC2CC3CC(=O)O[C@@H](/C=C/CC(C)C)C[C@@H]4CCC(C)C(C[C@@H](OC)CC(C2)O3)O4)co1 (some centres not stated) | > 100 µM | > 100 µM
CC1(C)OC(=O)C=C([O-])O1.CC1(C)OC(=O)C=C([O-])O1.O=c1c(O)c(-c2ccc([O-])cc2[O-])oc2cc(O)cc(O)c12.[Ti+4] | – | > 100 µM

System: COLO 205 colon
Assay: DTP human tumour cell line panel, 48 h

SMILES | GI50 | TGI
COc1cc2c3c(n(CCCN4CCC(N)CC4)c(=O)c2cc1OC)-c1cc2c(cc1C3=O)OCO2 | 2.86 µM | 7.38 µM
C=C(C)[C@@H]1CC[C@@]2(C(=O)O)CC[C@]3(C)C(CCC4[C@@]5(C)CCC(OS(=O)(=O)c6ccccc6)C(C)(C)C5CC[C@]43C)C12 (some centres not stated) | 5.66 µM | 18.2 µM
O=C(N/N=C/c1ccc(Cl)cc1Cl)c1ccccc1Nc1cccc(C(F)(F)F)c1 | 2.73 µM | 9.37 µM
N#Cc1c(N)c(C(=O)O)nn(-c2cccc(C(F)(F)F)c2)c1=O | – | > 100 µM
CCOC(=O)Cc1nc(/C(C#N)=C/c2ccco2)[nH]c(=O)c1C#N | – | > 100 µM
COc1cc(/C=C\c2ccc(O)cc2)cc(OC)c1OC | – | 13.9 µM
C=C(COC(C)=O)CC(/C=C(\C)CCC=C(C)C)OC(C)=O (configuration not stated) | – | > 100 µM
Cc1ccsc1C(=S)Nc1ccc(Cl)c(C(=O)OC(C(C)C)C(C)C)c1 | – | 26.1 µM
CC1(C)CCc2cc3c(cc2O1)OCCC3=O | – | > 100 µM
COc1ccc(-c2cc(-c3cc(Cl)ccc3Cl)nc3nc(=S)[nH]c(N)c23)cc1 | 85.7 µM | > 100 µM
c1cc[c]([Sn]([S]c2cccc3cccnc23)([c]2ccccc2)[c]2ccccc2)cc1 | 0.017 µM | 0.0352 µM
O=C1CCn2c([nH]c3cccc4cccc2c43)=N1 | – | > 100 µM
C=C1CC(COc2cc(Cl)nc(N)n2)C1 | 21.1 µM | 60.8 µM
CCOc1cccc2nc3cccc(C(=O)NCCN(C)C)c3nc12 | – | 3.52 µM
Cc1cc(C)nc(NS(=O)(=O)c2ccc(Nc3c4ccccc4nc4c(C(=O)N5CCN(CCOS(C)(=O)=O)CC5)ccc(Cl)c34)cc2)n1 | – | > 100 µM
Clc1cc(Cl)c2c(Cl)cc(Cl)c3c2c1N=S=N3 | – | > 100 µM
C=CC(=O)N1CCN(c2ncnc3c(F)c(-c4c(O)cccc4F)c(Cl)cc23)CC1 | 17.5 µM | 37.5 µM
CN1CCN(C)C1c1cccc(C2N(C)CCN2C)c1 | – | > 100 µM
CC(=O)OCCOCBr | – | > 100 µM

SMILES | GI50 | TGI
O=C1c2ccccc2-c2c1c1ccccc1c(=O)n2CCNCCCNCCn1c2c(c3ccccc3c1=O)C(=O)c1ccccc1-2 | 0.637 µM | 1.59 µM
CC(O)CN1C(=O)NC(Cc2ccccc2)C1=O (configuration not stated) | – | > 100 µM
O=C(c1ccccc1)[C@H]1Nc2cnccc2C2c3ccccc3CC21 (some centres not stated) | – | 42.9 µM
COc1ccc(C(=O)C(C(=O)CCC(=O)Nc2cccc(C(F)(F)F)c2)c2ccccc2)cc1 (configuration not stated) | – | > 100 µM
NC1=NC(=O)C(CC(=O)Nc2ccc([N+](=O)[O-])cc2[N+](=O)[O-])S1 (configuration not stated) | – | > 100 µM
O=C1c2ccccc2-c2cccc3ccc(Cc4ccccc4)c1c23 | – | > 100 µM
COC(=O)/C(=N\NC(=S)NN)C(C(=O)C(=O)Nc1ccccc1C(N)=O)c1nc2ccccc2[nH]c1=O (configuration not stated) | – | > 100 µM
CC/C=C\C/C=C\C1CC(=O)NCCCNCCCCN1 (configuration not stated) | – | > 100 µM
CC1CCCC(C(=O)/C(=C/c2cccc(Cl)c2)C(=O)C(=O)O)C1 (configuration not stated) | – | > 100 µM
CC(=O)c1c(C)n([O-])c2cc(C)c(C)cc2[n+]1=O | – | > 100 µM
C=C1C(=O)O[C@H]2[C@H]1CC/C(COC(=O)c1cc3cc(OC)ccc3[nH]1)=C\CC[C@@]1(C)O[C@@H]21 | 1.18 µM | 2.72 µM
CCCS(=O)(=O)c1nc(NC2CC2)cc(-c2ccc3c(ccn3C3CC(C)(C)NC(C)(C)C3)c2)n1 | 1.84 µM | 3.39 µM
N#CC(C#N)=Cc1cccc(Oc2ccccc2)c1 | – | 73.9 µM
COc1ccc(/C=C/C(=O)c2sc(-n3nc(-c4ccccc4)cc3-c3ccccc3)nc2C)cc1OC | – | > 100 µM
COC(=O)c1c(O)ccc2[nH]c(C)c(C#N)c12 | 88.5 µM | > 100 µM
NC(CCSCC(F)F)C(=O)O (configuration not stated) | – | > 100 µM
COC(=O)NC/C=C\c1nc(CC/C=C\C(=O)OC2CC3CC(=O)O[C@@H](/C=C/CC(C)C)C[C@@H]4CCC(C)C(C[C@@H](OC)CC(C2)O3)O4)co1 (some centres not stated) | < 0.01 µM | 98.4 µM
CC1(C)OC(=O)C=C([O-])O1.CC1(C)OC(=O)C=C([O-])O1.O=c1c(O)c(-c2ccc([O-])cc2[O-])oc2cc(O)cc(O)c12.[Ti+4] | – | > 100 µM
